Assays:
Assay type in all cases: in vivo
[1] = tested on: Alternaria solani; assay: Alternaria solani / tomato / preventative, ALTELYP/ff-pr; settings: Table 4, adjuvant alone, 0.20%, average of three replicates
Procedure: (§1) In general, active ingredient is formulated (SC, SL) and just before spraying the formulations are mixed with water and ultrasonically agitated in order to achieve homogeneous distribution. Spray solutions are made up in water. Adjuvants are added as tank mix to the spray solution just before application. Foliar application is at 200 L/ha in an application device spraying with a single nozzle (type Lechler) 60 cm above the plants. Preventative tests are performed as 1 or 2 day preventative applications, i.e. plants are treated with the compounds 1 or 2 days prior to artificial inoculation with fungal spores, whereas for curative tests the inoculation is carried out prior to application. A single evaluation of disease level is made 5 to 48 days after inoculation, depending on the pathosystem. Disease control relative to the untreated check plants is then calculated. In the following examples, all treatments were sprayed at […] spray volume in 10% isopropanol solution to normalise foliar retention: Azoxystrobin;—Quadris SC250, Isopyrazam;—SC250, Cyproconazole: —Alto SL100, Chlorothalonil; Bravo SC720
Alternaria solani/Tomato/Preventative (Alternaria on Tomato)->ALTELYP/ff-pr-S:
4-week old tomato plants cv. Roter Gnom are sprayed in a spray chamber with the formulated test compound diluted in water. The test plants are inoculated by spraying them with a spore suspension two days after application. The inoculated test plants are incubated at 22/18° C. (day/night) and 95% rh in a greenhouse and the percentage leaf area covered by disease is assessed when an appropriate level of disease appears on untreated check plants (5-7 days after application).

[2] = tested on: Puccinia recondita f. Sp. Tritici; assay: Puccinia recondita f. sp. tritici / wheat / curative (brown rust on wheat), PUCCTRZ/ff-cu; design: key: % disease control relative to untreated check plants; settings: 0.20%, average of three replicates
Procedure: as §1
Puccinia recondita f. Sp. Tritici/Wheat/Curative (Brown Rust on Wheat)->PUCCTRZ/ff-cu-S:
2-week old wheat plants cv. Arina are inoculated by spraying them with a spore suspension two days before application. After an incubation period of 1 day at 20° C. and 95% rh followed by 1 day at 20° C. and 60% rh in a greenhouse, the inoculated test plants are sprayed in a spray chamber with the formulated test compound diluted in water. After additional incubation at 20° C./18° C. (day/night) and 60% rh in a greenhouse, the percentage leaf area covered by disease is assessed when an appropriate level of disease appears on untreated check plants (9-12 days after application).

[3] = tested on: Puccinia recondita f. Sp. Tritici; assay: Puccinia recondita f. sp. tritici / wheat / preventative (brown rust on wheat), PUCCTRZ/ff-pr; design: key: % disease control relative to untreated check; settings: 0.20%, average of three replicates
Procedure: as §1
Puccinia recondita f. Sp. Tritici/Wheat/Preventative (Brown Rust on Wheat)->PUCCTRZ/ff-pr-S:
2-week old wheat plants cv. Arina are sprayed in a spray chamber with the formulated test compound diluted in water. The test plants are inoculated by spraying them with a spore suspension one day after application. After an incubation period of 1 day at 20° C. and 95% rh, the inoculated test plants are kept at 20° C./18° C. (day/night) and 60% rh in a greenhouse. The percentage leaf area covered by disease is assessed when an appropriate level of disease appears on untreated check plants (12-14 days after application).

[4] = tested on: Mycosphaerella graminicola (Septoria tritici); assay: Mycosphaerella graminicola (Septoria tritici) / wheat / preventative, SEPTTRZ/ff-pr; settings: Table 3, adjuvant alone, 0.20%, average of three replicates
Procedure: as §1
Mycosphaerella graminicola (Septoria tritici)/Wheat/Preventative (Septoria tritici Leaf Spot on Wheat)->SEPTTRZ/ff-pr-S:
2-week old wheat plants cv. Riband are sprayed in a spray chamber with the formulated test compound diluted in water. The test plants are inoculated by spraying a spore suspension on them one day after application. After an incubation period of 1 day at 22° C./21° C. (day/night) and 95% rh, the inoculated test plants are kept at 22° C./21° C. (day/night) and 70% rh in a greenhouse. Percentage leaf area covered by disease was assessed and efficacy was calculated compare to untreated controls when an appropriate level of disease appears on untreated check plants (16-19 days after application).

Row | Molecule | ALTELYP/ff-pr, visual assessment of control [1] | PUCCTRZ/ff-cu, visual assessment of control ([2]; Table 1, adjuvant alone) | PUCCTRZ/ff-cu, visual assessment of control ([2]; Table 2, adjuvant alone) | PUCCTRZ/ff-pr, visual assessment of control ([3]; Table 1, adjuvant alone) | PUCCTRZ/ff-pr, visual assessment of control ([3]; Table 2, adjuvant alone) | PUCCTRZ/ff-pr, visual assessment of control ([3]; Table 3, adjuvant alone) | PUCCTRZ/ff-pr, visual assessment of control ([3]; Table 4, adjuvant alone) | SEPTTRZ/ff-pr, visual assessment of control [4]
1 | CCCCCCCC/C=C\CCCCCCCC(=O)OC [Methyl oleate, reference compound] | 0 | 0 | 0 | 0 | 0 | 0 | 0 | 0
2 | Nopol-5PO-7EO [Nopol-5PO-7EO (Rhodoclean EFC)] | 6 | 0 | 0 | 0 | 0 | 0 | 0 | 0
3 | Nopol-5PO-9EO [Nopol-5PO-9EO (Rhodoclean MSC)] | 0 | 0 | 0 | 0 | 0 | 0 | 0 | 15
4 | Nopol-5PO-25EO [Nopol-5PO-25EO (Rhodoclean 525)] | 2 | 0 | 0 | 0 | 0 | 0 | 0 | 7

— patent US20160212993A1, “ADJUVANT COMPOSITIONS” (SYNGENTA LIMITED, priority 2012, published 2016)
